According to patent publication US9445998B2, “Pharmaceutical dosage forms comprising a low-solubility drug and a polymer” (Bend Research, Inc., priority 2004, dated 2016):
Like-named read-outs stand apart in the source and are kept apart here.

Experiments:
[1] = format: physicochemical; details: not told, 100 μgA/mL, pH 6.5
Protocol: An Accurel® PP 1E microporous polypropylene membrane was obtained from Membrana GmbH (Wuppertal, Germany). The membrane was washed in isopropyl alcohol and rinsed in methanol in a sonicating bath for 1 minute at ambient temperature, and then allowed to air dry at ambient temperature. The feed side of the membrane was then plasma-treated to render it hydrophilic by placing a sample of the membrane in a plasma chamber. The atmosphere of the plasma chamber was saturated with water vapor at a pressure of 550 mtorr. A plasma was then generated using radio frequency (RF) power inductively coupled into the chamber via annular electrodes at a power setting of 50 watts for 45 seconds. The contact angle of a drop of water placed on the surface of the plasma-treated membrane was less than about 40°. The contact angle of a drop of water placed on the permeate side of the same membrane was greater than about 110°.
A permeate reservoir was formed by gluing a sample of the plasma-treated membrane to a glass tube having an inside diameter of about 1 inch (2.54 cm) using an epoxy-based glue (LOCTITE® E-30CL HYSOL® from Henkel Loctite Corp, Rocky Hill, Conn.). The feed-side of the membrane was oriented so that it was on the outside of the permeate reservoir, while the permeate-side of the membrane was oriented so that it was on the inside of the reservoir. The effective membrane area of the membrane on the permeate reservoir was about 4.9 cm^2. The permeate reservoir was placed into a glass feed reservoir. The feed reservoir was equipped with a magnetic stir bar and the reservoir was placed on a stir plate and the stir rate was set to 100 rpm during the test. The apparatus was placed into a chamber maintained at 37° C. for the duration of the test. Further details of the test apparatus and protocols are presented in co-pending U.S. Patent Application Ser. No. 60/557,897, entitled “Method and Device for Evaluation of Pharmaceutical Compositions,” filed Mar. 30, 2004, incorporated herein by reference.
To form the feed solution, a 1.429 mg (0.5 mgA) sample of CC-1 was weighed into a feed reservoir. (As used herein, “mgA” is milligrams of active drug, reported as the free base, non-salt form, non-hydrate drug molecule.) To this was added 5 mL of the MFD solution previously described, consisting of PBS solution containing 7.3 mM sodium taurocholic acid and 1.4 mM of 1-palmitoyl-2-oleyl-sn-glycero-3-phosphocholine (0.5% NaTC/POPC). […] The feed solution was mixed using a vortex mixer for 1 minute. Before the membrane contacted the feed solution, 5 mL of 60 wt % decanol in decane was placed into the permeate reservoir. Time zero in the test was when the membrane was placed in contact with the feed solution. A […] aliquot of the permeate solution was collected at the times indicated. Samples were then diluted in […] IPA and analyzed using HPLC.
The maximum flux of drug across the membrane (in units of μgA/cm^2-min) was determined by performing a least-squares fit to the data in Table 4 from 0 to 60 minutes to obtain the slope (CC-1: 0.26 μgA/mL-min; Control 1A: 0.13 μgA/mL-min; Control 1B: 0.07 μgA/mL-min), multiplying the slope by the permeate volume (5 mL), and dividing by the membrane area (4.9 cm^2).

[2] = Dissolution in phosphate buffered saline at pH 6.5 (ziprasidone); format: physicochemical; details: PBS pH 6.5, at equilibrium; drug crystallizes as the free base form
Source text: (§1) An example of a drug having a crystalline highly soluble salt form is ziprasidone. Ziprasidone hydrochloride monohydrate has a solubility of about 10 μgA/mL (expressed as the free base) in water, whereas the free base form has a solubility of less than about 0.2 μgA/mL under the same conditions. Thus, crystalline ziprasidone hydrochloride is a solubility-improved form relative to the crystalline free base form of ziprasidone.
An appropriate MFD solution is the same PBS solution wherein there is also present 7.3 mM sodium taurocholic acid and 1.4 mM of 1-palmitoyl-2-oleyl-sn-glycero-3-phosphocholine.

[3] = Solubility in water; format: physicochemical; details: expressed as the free base, listed as free base form
Source text: as §1

[4] = Microcentrifuge dissolution test in MFD solution; format: physicochemical; set-up: AUC: concentration or dose not given beside the values; details: for Dissolved Ziprasidone Concentration / AUC: MFD solution pH 6.5, 37° C.; for Dissolved Ziprasidone Concentration: 200 μgA/mL if all dissolved
Protocol: A microcentrifuge dissolution test was performed to verify that ziprasidone hydrochloride monohydrate is a solubility-improved form of ziprasidone. For this test, a sufficient amount of ziprasidone hydrochloride monohydrate was added to a microcentrifuge test tube so that the concentration of ziprasidone would have been 200 μgA/mL, if all of the ziprasidone had dissolved. The tests were run in duplicate. The tubes were placed in a 37° C. temperature-controlled chamber, and 1.8 mL MFD solution at pH 6.5 and 290 mOsm/kg was added to each respective tube. The samples were quickly mixed using a vortex mixer for about 60 seconds. The samples were centrifuged at 13,000 G at 37° C. for 1 minute prior to collecting a sample. The resulting supernatant solution was then sampled and diluted 1:5 (by volume) with methanol. Samples were analyzed by high-performance liquid chromatography (HPLC) at a UV absorbance of 315 nm using a Zorbax RxC8 Reliance column and a mobile phase consisting of 55% (50 mM potassium dihydrogen phosphate, pH 6.5)/45% acetonitrile. Drug concentration was calculated by comparing UV absorbance of samples to the absorbance of drug standards. The contents of each tube were mixed on the vortex mixer and allowed to stand undisturbed at 37° C. until the next sample was taken. Samples were collected at 4, 10, 20, 40, 90, and 1200 minutes following administration to the MFD solution.
A similar test was performed with the crystalline ziprasidone free base as a control, and a sufficient amount of material was added so that the concentration of compound would have been 200 μgA/mL, if all of the ziprasidone had dissolved.
The concentrations of ziprasidone obtained in these tests were used to determine the maximum dissolved concentration of ziprasidone (“MDC90”) and the area under the concentration-versus-time curve (“AUC90”) during the initial ninety minutes.

For O=C1Cc2cc(CCN3CCN(c4nsc5ccccc45)CC3)c(Cl)cc2N1 [Ziprasidone Free Base, ziprasidone], the “Ziprasidone Concentration in Permeate” value ([1]; 0 min) was 0.0 μgA/mL, the “Maximum Flux of Ziprasidone” value [1] was 0.07 μgA/cm^2-min and the “Ziprasidone Concentration in Permeate” value ([1]; 20 min) was 0.0 μgA/mL. The “Ziprasidone Concentration in Permeate” value ([1]; 40 min) was 3.3 μgA/mL, the “Ziprasidone Concentration in Permeate” value ([1]; 60 min) was 3.4 μgA/mL and the “Ziprasidone Concentration in Permeate” value ([1]; 90 min) was 5.4 μgA/mL. For the same compound, the “Ziprasidone Concentration in Permeate” value ([1]; 120 min) was 6.8 μgA/mL, the “Ziprasidone Concentration in Permeate” value ([1]; 180 min) was 9.2 μgA/mL and the “Ziprasidone Concentration in Permeate” value ([1]; 245 min) was 11.5 μgA/mL. The “Ziprasidone Concentration in Permeate” value ([1]; 360 min) was 14.7 μgA/mL, the equilibrium solubility [2] was “about 0.2 μgA/mL” and the solubility in water [3] was “less than 0.2 μgA/mL”. For the same compound, the “Dissolved Ziprasidone Concentration” value ([4]; time 4 min) was 1 μgA/mL, the “Dissolved Ziprasidone Concentration” value ([4]; time 10 min) was 1 μgA/mL and the “Dissolved Ziprasidone Concentration” value ([4]; time 20 min) was 1 μgA/mL. For the same compound, the “Dissolved Ziprasidone Concentration” value ([4]; time 40 min) was 2 μgA/mL, the “Dissolved Ziprasidone Concentration” value ([4]; time 90 min) was 1 μgA/mL and the “Dissolved Ziprasidone Concentration” value ([4]; time 1200 min) was 2 μgA/mL. It also gave an AUC ([4]; up to time 4 min) of 3 min-μgA/mL, an AUC ([4]; up to time 10 min) of 11 min-μgA/mL and an AUC ([4]; up to time 20 min) of 23 min-μgA/mL. It also gave an AUC ([4]; up to time 40 min) of 51 min-μgA/mL, an AUC ([4]; up to time 90 min) of 120 min-μgA/mL and an AUC ([4]; up to time 1200 min) of 2000 min-μgA/mL. It also gave an AUC90 ([4]; area under the concentration-versus-time curve during the initial ninety minutes, MFD solution) of 120 min·µgA/mL and an MDC90 ([4]; maximum dissolved concentration during the initial ninety minutes, MFD solution) of 2 µgA/mL.
